US20090131480A1 (priority 2005, published 2009)

How the values were obtained:
[1] = tested on: organotypic hippocampal slice cultures; test: AMPA toxicity in organotypic hippocampal slice cultures (PI fluorescence in CA1); format: cell-based, Wistar rat
Experimental: (§1) Medium was changed every 3-4 days.
(§2) Neurotoxicity protocols are outlined below.
(1) AMPA: Cultures were transferred to fresh SFM (+PI) containing 30 μM S-AMPA for 3 hours under normal culture conditions. At the end of this period, cultures were returned to fresh SFM for 21 hours prior to determination of neuronal death by PI imaging. GYKI52466 (30 μM) was used as a positive, neuroprotective control.

[2] = tested on: organotypic hippocampal slice cultures; test: Oxygen-glucose deprivation (OGD) in organotypic hippocampal slice cultures (PI fluorescence in CA1); format: cell-based, Wistar rat
Experimental: as §1, §2
(2) Oxygen-Glucose Deprivation (OGD): Experimental ischaemia was performed by exposing cultures to oxygen-glucose deprivation (OGD) as described previously. […] OGD was induced by transferring cultures to glucose-free SFM (+PI) which had been saturated with 95% N2/5% CO2. Culture plates (without lids) were then sealed into an airtight chamber in which the atmosphere was saturated with 95% N2/5% CO2 by continuously blowing through gas at 10 L/min for ten minutes before being sealed and placed in the incubator for 50 mins (total time of OGD was therefore 60 mins). At the end of the period of OGD cultures were returned to normoxic SFM containing PI and placed back in the incubator for 23 hours.

[3] = C57BL/6, mouse, in vivo, po, 1 h
[4] = tested on: dopamine turnover in mice striatum; test: Dopamine, DOPAC and HVA content / dopamine turnover in mice striatum (HPLC with electrochemical detection); format: in vivo, C57BL/6 mice; conditions: for dopamine turnover in mice: monotherapy vs combination, FIG. 3
Experimental: C57BL/6 mice (SLC, Shizuoka, Japan) were used for the experiment. […] The two drugs were orally administered by gavage 1 hour before sampling. At the time the mice were sacrificed, both striata were rapidly dissected and were frozen by liquid nitrogen. The samples were subsequently sonicated in 0.5 ml of chilled 0.5 M perchloric acid containing 0.1 M EDTA, and centrifuged at 13000 rpm for 15 min at 4° C. Then monoamine levels were measured by HPLC with electrochemical detection. Supernatant aliquots of 201 were separated over an Eicompak SC5-ODS column (3×150 mm; Eicom, Japan) with mobile phase of 17% methanol, 83% 0.1M acetate/citrate buffer (pH 3.5) containing 190 mg/ml sodium 1-octanesulfonate and 50 mg/ml EDTA, and a flow rate of 0.65 ml/min. Peaks of dopamine, DOPAC, HVA, 5-HT, and 5-HIAA were quantified by area integration with PowerChrom (eDAQ, Australia), and concentrations were expressed as nanograms per milligram of striatal tissue.

[5] = tested on: organotypic hippocampal slice cultures; test: Duroquinone free radical-mediated toxicity in organotypic hippocampal slice cultures (PI fluorescence in CA1); format: cell-based, Wistar rat; conditions: 100 μM; 100 μM duroquinone 3 hours; duroquinone alone 51.0±3.4%
Experimental: as §1, §2
(5) Free radical-mediated toxicity (Duroquinone): Duroquinone produces superoxide-mediated neurotoxicity producing a selective neuronal lesion in the CA1 region. Wilde et al, J. Neurochem., 69(2):883-886 (1997). Cultures were transferred to fresh SFM (+PI) containing 100 μM duroquinone for 3 hours under normal culture conditions. At the end of this period, cultures were returned to fresh SFM for 21 hours prior to determination of neuronal death by PI imaging. MnTBAP (100 μM) was used as a positive neuroprotective control.

[6] = tested on: organotypic hippocampal slice cultures; test: Hypoxia-induced neurodegeneration in organotypic hippocampal slice cultures (PI fluorescence in CA1); format: cell-based, Wistar rat
Experimental: as §1, §2
(3) Hypoxia: Hypoxia was performed by exposing cultures to oxygen-deprivation as described previously. Pringle et al, Brain Research, 755:36-46 (1997); Pringle et al, Stroke, 27:2124-2130 (1996). Hypoxia was induced by transferring cultures to SFM (+PI) which had been saturated with 95% N2/5% CO2. Culture plates (without lids) were then sealed into an airtight chamber in which the atmosphere was saturated with 95% N2/5% CO2 by continuously blowing through gas at 10 L/min for ten minutes before being sealed and placed in the incubator for 170 mins (total time of hypoxia was therefore 180 mins). At the end of the period of hypoxia, cultures were returned to normoxic SFM (+PI) and placed back in the incubator for 21 hours. The freeradical scavenger MnTBAP (100 μM) was used as a positive neuroprotective control.

## CC1=NN=C(c2ccc(N)cc2)c2cc3c(cc2C1)OCO3 [GYKI52466]
[1]; 30 μM test compound, 30 μM AMPA 3 hours, AMPA alone 65.1±1.7%
  neuronal damage, % of CA1 with PI fluorescence: 14.3±2.3%
[1]; 30 μM, pre-incubation series, AMPA alone 46.5±5.0%
  neuronal damage, % of CA1 with PI fluorescence: 21.7±2.7%
[2]; 30 μM, 60 minutes OGD, OGD alone 50.6±5.2%
  neuronal damage, % of CA1 with PI fluorescence: 36.9±3.6%

## COc1cc2c(cc1OC)C(=O)C(CC1CCN(Cc3ccccc3)CC1)C2 (stereo not shown) [donepezil, 1-benzyl-4-((5,6-dimethoxy-1-indanon)-2-yl)methylpiperidine]
[3]
  dose at which peripheral side effect was shown: ≥ 7.5 mg/kg
[4]; donepezil orally, 1 hour before sampling
  content of dopamine in striatum: reduced the content of dopamine significantly
[4]; donepezil orally, FIG. 2
  DPAC/DA: increased significantly
  HVA/DA: increased significantly
[4]
  dopamine turnover in mice: modulated dopamine turnover but neither reached significance

## O=C(O)c1ccc(/C2=C3\C=CC(=N3)/C(c3ccc(C(=O)O)cc3)=c3/cc/c4[n]3[Mn]([Cl])[n]3c2ccc3/C(c2ccc(C(=O)O)cc2)=C2/C=CC(=N2)\C=4c2ccc(C(=O)O)cc2)cc1 [MnTBAP]
[5]
  neuronal damage, % of CA1 with PI fluorescence: 0.1±0.0%
[6]; 100 μM, 3 hours hypoxia, hypoxia alone 45.1±3.5%
  neuronal damage, % of CA1 with PI fluorescence: 0.2±0.1%
[6]; 100 μM, repeated experiment, hypoxia alone 36.9±[…]
  neuronal damage, % of CA1 with PI fluorescence: 0.8±0.4%
[6]; second set, hypoxia alone 36.4±[…]
  neuronal damage, % of CA1 with PI fluorescence: 0.0±0.0%
[2]; 100 μM, 60 minutes OGD, OGD alone 50.6±5.2%
  neuronal damage, % of CA1 with PI fluorescence: 0.1±0.0%
[2]; 100 μM, second series, OGD alone 44.8±[…]
  neuronal damage, % of CA1 with PI fluorescence: 0.6±0.2%

## N#Cc1ccccc1-c1cc(-c2ccccn2)cn(-c2ccccc2)c1=O [2-(2-oxo-1-phenyl-5-pyridin-2-yl-1,2-dihydropyridin-3-yl)benzonitrile]
[6]; 5 μM, hypoxia alone 45.1±3.5%
  neuronal damage, % of CA1 with PI fluorescence: 3.9±1.8%
[2]; any other concentration assessed (up to 3 μM), OGD alone 50.6±5.2%
  effect on OGD-induced neurotoxicity: no significant effect
[2]; six-point concentration-response curve
  EC50 in OGD model: could not be established
[4]; 1 mg/kg, orally, 1 hour before sampling, FIG. 1
  content of HVA in striatum: elevated
[4]
  dopamine turnover in mice: modulated dopamine turnover but neither reached significance
